The structures appear in SMILES notation.

The term IC50 denotes the concentration that inhibits the measured activity by half.

The assay addresses T1, androgen receptor (AR) (Homo sapiens, UniProt P10275, T878A).
T1 sequence (P10275 1-920 T878A): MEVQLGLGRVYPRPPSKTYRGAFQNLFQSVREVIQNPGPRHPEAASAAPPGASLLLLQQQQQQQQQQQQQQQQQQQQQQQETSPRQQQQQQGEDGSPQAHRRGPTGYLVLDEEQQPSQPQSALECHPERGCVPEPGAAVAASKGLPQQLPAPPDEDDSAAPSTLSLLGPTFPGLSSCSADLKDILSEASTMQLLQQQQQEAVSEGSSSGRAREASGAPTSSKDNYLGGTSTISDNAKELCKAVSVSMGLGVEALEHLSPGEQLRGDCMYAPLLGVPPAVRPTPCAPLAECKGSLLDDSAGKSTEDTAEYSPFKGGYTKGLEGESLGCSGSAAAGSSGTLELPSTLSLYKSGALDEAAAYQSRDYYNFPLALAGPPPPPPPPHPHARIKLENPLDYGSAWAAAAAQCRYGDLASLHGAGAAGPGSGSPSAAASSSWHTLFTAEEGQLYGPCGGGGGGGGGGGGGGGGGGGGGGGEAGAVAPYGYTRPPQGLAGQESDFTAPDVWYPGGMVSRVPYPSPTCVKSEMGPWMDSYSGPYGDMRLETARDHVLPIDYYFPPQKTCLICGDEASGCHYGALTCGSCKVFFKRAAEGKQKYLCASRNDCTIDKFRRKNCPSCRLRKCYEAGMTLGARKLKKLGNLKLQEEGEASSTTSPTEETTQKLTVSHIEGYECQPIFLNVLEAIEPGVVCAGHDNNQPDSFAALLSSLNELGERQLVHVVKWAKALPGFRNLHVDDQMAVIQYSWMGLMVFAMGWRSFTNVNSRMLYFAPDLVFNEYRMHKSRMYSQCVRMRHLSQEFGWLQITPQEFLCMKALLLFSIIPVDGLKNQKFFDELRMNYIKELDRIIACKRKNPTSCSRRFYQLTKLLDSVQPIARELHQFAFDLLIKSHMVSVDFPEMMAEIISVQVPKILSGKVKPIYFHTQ
The assay can be described thus: Androgen-induced PSA (6.1 kb)-luciferase reporter assay in LNCaP cells (R1881 1 nM). It counts as cell-based. Also on record: endogenous in cells; host or cells: LNCaP. The note with it: 24 h, read-out: PSA-Luc IC50 Range. The method, then: The PSA (6.1 kb)-luciferase reporter contains functional AREs (androgen response elements) to which AR binds in response to androgen to induce luciferase activity. LNCaP cells were transiently transfected with the PSA (6.1 kb)-luciferase reporter for 24 h, and then pretreated with vehicle (DMSO) or indicated concentration of representative compounds for one hour prior to the addition of synthetic androgen, R1881 (1 nM). After 24 h of incubation with R1881, the cells were harvested, and relative luciferase activities were determined (FIG. 1). To determine the IC50, treatments were normalized to vehicle control activity induced by R1881 (Table 2).
Luciferase Assay: Cells were lysed using Passive Lysis Buffer (Promega) and then collected into V-bottom 96-well tissue culture plates. Lysates were centrifuged at 4° C. for 5 minutes at 3000 rpm. To measure luminescence of LNCaP cell lysates the Firefly Luciferase Assay System (Promega) was employed, according to manufacturer's protocol. Relative luminescence units (RLU) in cell lysates were detected for 10 seconds using Promega GloMax-Multi Detection Luminometer (Promega). Values were normalized to protein content. GraphPad Prism graphing software was used to calculate IC50 values.
Statistical analyses were performed using GraphPad Prism (Version 6.01 for Windows; La Jolla, Calif., USA). Comparisons between treatment and control groups were compared using Two-Way ANOVA with post-hoc Dunnett's and Tukey's tests. Differences were considered statistically significant at P values less than 0.05.
For orientation: A reporter such as luciferase makes a cellular process visible.
`CC(C)(c1ccc(OCc2ncncc2N)cc1)c1cc(Cl)c(OCCCl)c(C#N)c1` [Compound A98]: the IC50 lay in the range of 500 to 2000 nM.
`CS(=O)(=O)N1CCC(CCOc2ccc3c(ccn3-c3cc(Cl)c(OCCCl)c(C#N)c3)c2)CC1` [Compound A190]: the concentration for half-maximal inhibition (IC50) is above 2000 nM.
In the case of `CC(C)(c1ccc(-c2cnc3c(c2)C(NS(C)(=O)=O)CCC3)cc1)c1cc(Cl)c(OCCCl)c(C#N)c1` (centres unmarked) [Compound A243] it was above 2000 nM.
In the case of `CCC(O)COc1c(Cl)cc(C(C)(C)c2ccc(OCc3ccnc(NS(C)(=O)=O)n3)cc2)cc1C#N` (centres unmarked) [Compound A174] it was above 2000 nM.
In the case of `CS(=O)(=O)N1CCN(CCc2ccc3c(ccn3-c3cc(Cl)c(OCCCl)c(C#N)c3)c2)CC1` [Compound A124] it was 500 to 2000 nM; in that of `CS(=O)(=O)N1C[C@H]2C[C@@H](Oc3ccc4c(ccn4-c4cc(Cl)c(OCCCl)c(C#N)c4)c3)C[C@H]2C1` [Compound A221], 500 to 2000 nM; in that of `N#Cc1cc(-n2ccc3cc(OCc4c[nH]nn4)ccc32)cc(Cl)c1OCCCl` [Compound A54], 500 to 2000 nM.
Take `C[C@H](Oc1ccc(C(C)(C)c2cc(Cl)c(OCCCl)c(C#N)c2)cc1)C12CC(NS(C)(=O)=O)(C1)C2` [Compound A265]: the IC50 is 500 to 2000 nM.
Consider `CC(C)(c1ccc(OCc2ccnc(NS(C)(=O)=O)n2)cc1)c1cc(F)c(N2CC3(CCC3)C2)c(C#N)c1` [Compound A240, N-(4-((4-(2-(3-cyano-5-fluoro-4-(2-azaspiro[3.3]heptan-2-yl)phenyl)propan-2-yl)phenoxy)methyl)pyrimidin-2-yl)methanesulfonamide], for which the IC50 was above 2000 nM.
Take `CS(=O)(=O)Nc1nccc(COc2ccc3c(c2)CC[C@@H]3c2cc(Cl)c(OCCCl)c(C#N)c2)n1` [A35(R)]: the IC50 was below 500 nM.
`CS(=O)(=O)Nc1nccc(COc2ccc3c(-c4cc(Cl)c(OCCCl)c(C#N)c4)csc3c2)n1` [Compound A61]: the half-maximal inhibitory concentration (IC50) is below 500 nM.
In the case of `CS(=O)(=O)Nc1nccc(COc2ccc(-n3ccc4c(C#N)c(OCCCl)c(Cl)cc43)cc2)n1` [Compound A27] it was 500 to 2000 nM; in that of `Cc1cc2cc(OCC34CC(NS(C)(=O)=O)(C3)C4)ccc2n1-c1cc(Cl)c(OCCCl)c(C#N)c1` [Compound A139], above 2000 nM.
In the case of `CC(C)(c1ccc(OCC23CCC(NS(C)(=O)=O)(CC2)CC3)cc1)c1cc(Cl)c(OCCCl)c(C#N)c1` [Compound A273] it was 500 to 2000 nM.
As to `CC(C)(c1ccc(-c2cnc3c(c2)CCC(NS(C)(=O)=O)C3)cc1)c1cc(Cl)c(OCCCl)c(C#N)c1` (centres unmarked) [Compound A214], the IC50 fell in the range of 500 to 2000 nM.
In the case of `CS(=O)(=O)N[C@H]1CC[C@H](Oc2ccc3c(ccn3-c3cc(Cl)c(OCCCl)c(C#N)c3)c2)CC1` [Compound A242] it was 500 to 2000 nM; in that of `CS(=O)(=O)N[C@H]1C[C@H](COc2ccc3c(c2)CCC3c2cc(Cl)c(OCCCl)c(C#N)c2)C1` (some centres unmarked) [Compound A266], 500 to 2000 nM.
`CC(C)(c1ccc(-c2cnc3c(NS(C)(=O)=O)nccc3c2)cc1)c1cc(Cl)c(OCCCl)c(C#N)c1` [Compound A199]: the IC50 is below 500 nM.
In the case of `CCNc1ncc2cc(-c3ccc(C(C)(C)c4cc(Cl)c(OCCCl)c(C#N)c4)cc3)ccc2n1` [Compound A176] it was above 2000 nM; in that of `CS(=O)(=O)Nc1ncc2ccc(COc3cccc(-c4cc(Cl)c(OCCCl)c(C#N)c4)c3)cc2n1` [Compound A152], above 2000 nM; in that of `CS(=O)(=O)Nc1nccc(COc2ccc3c(c2)CCN3c2cc(Cl)c(OCCCl)c(C#N)c2)n1` [Compound A30, N-(4-(((1-(3-chloro-4-(2-chloroethoxy)-5-cyanophenyl)indolin-5-yl)oxy)methyl)pyrimidin-2-yl)methanesulfonamide], above 2000 nM.
In the case of `CC(C)(c1ccc(OCC23CC(C2)N(S(C)(=O)=O)C3)cc1)c1cc(Cl)c(OCCCl)c(C#N)c1` [Compound A285] it was 500 to 2000 nM; in that of `CC(C)(c1ccc(-c2c[nH]c3c(NS(C)(=O)=O)ncnc23)cc1)c1cc(Cl)c(OCCCl)c(C#N)c1` [Compound A211], above 2000 nM.

The record behind these values is patent publication US20220380378A1 (ESSA Pharma, Inc., priority 2021, published 2022).
